# Earlier results in US20170049851A1, “Method for Medical Treatment” (priority 2015, published 2017).
# Details: healthy as well as unhealthy persons; some adverse effects, largely gastrointestinal, with very high intakes
smiles,measurement,value
"COC1=C(OC)C(=O)C(C/C=C(\C)CC/C=C(\C)CC/C=C(\C)CC/C=C(\C)CC/C=C(\C)CC/C=C(\C)CC/C=C(\C)CC/C=C(\C)CC/C=C(\C)CCC=C(C)C)=C(C)C1=O [CoQ10, ubiquinone]",daily dosage found to be tolerated,up to 3600 mg
